T/C data for nine compounds are collected here from PubChem BioAssay AID328 (DTP/NCI, 2004).

For this experiment, the system named is BDF1 mice, P388 leukemia ip, median survival T/C. As to the kind of experiment: NCI In Vivo Anticancer Drug Screen. Data for tumor model P388 Leukemia (intraperitoneal) in B6D2F1 (BDF1) mice. As to conditions: endpoint: median survival time, higher = longer survival. The procedure, abridged: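 Steps: implant the tumour, treat one group with compound and another with vehicle, record survival, then divide treated by control.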

Where [1] appears, read: dose: 100.0 mg/kg/injection, schedule: Q01DX009 (ip), vehicle: saline with Tween-80.
Where [2] appears, read: dose: 100.0 mg/kg/injection, schedule: Q04DX003 (ip), vehicle: saline.
Setting [3] is: dose: 200.0 mg/kg/injection, schedule: Q04DX003 (ip), vehicle: saline.
[4] abbreviates: dose: 400.0 mg/kg/injection, schedule: Q01DX009 (ip), vehicle: saline.
Where [5] appears, read: dose: 50.0 mg/kg/injection, schedule: Q01DX009 (ip), vehicle: saline.
Setting [6] is: dose: 100.0 mg/kg/injection, schedule: Q01DX009 (ip), vehicle: saline.
The mark [7] stands for this setting: dose: 100.0 mg/kg/injection, schedule: Q01DX009 (ip), vehicle: Klucel (hydroxypropylcellulose) (HPC).

Where “and” joins values, the source holds several entries; their conditions need not be identical. Identical values can stand only once. Toxic doses and inconclusive results are not listed.

For `CC(=O)ON(CC(=O)OCc1ccccc1)C(C)=O`, the T/C is, setting by setting: (dose: 12.5 mg/kg/injection, schedule: Q01DX009 (ip), vehicle: other) 100 % of control; (dose: 25.0 mg/kg/injection, schedule: Q01DX009 (ip), vehicle: other) 102 % of control; (dose: 50.0 mg/kg/injection, schedule: Q01DX009 (ip), vehicle: other) 118 % of control; (dose: 100.0 mg/kg/injection, schedule: Q01DX009 (ip), vehicle: other) 102 % of control; (dose: 200.0 mg/kg/injection, schedule: Q01DX009 (ip), vehicle: other) 100 % of control.
As to `ClCC[N+]12CC[N+](CCCl)(CC1)C2`, the T/C runs as follows: (dose: 12.5 mg/kg/injection, schedule: Q01DX009 (ip), vehicle: saline with Tween-80) 103 % of control; (dose: 25.0 mg/kg/injection, schedule: Q01DX009 (ip), vehicle: saline with Tween-80) 118 % of control and 116 % of control; (dose: 25.0 mg/kg/injection, schedule: Q04DX003 (ip), vehicle: saline with Tween-80) 108 % of control; (dose: 50.0 mg/kg/injection, schedule: Q04DX003 (ip), vehicle: saline with Tween-80) 93 % of control and 108 % of control; (dose: 50.0 mg/kg/injection, schedule: Q04DX003 (ip), vehicle: saline) 103 % of control; under setting [1], 150 % of control and 206 % of control and 168 % of control. Besides, the T/C is 171 % of control (dose: 100.0 mg/kg/injection, schedule: Q04DX003 (ip), vehicle: saline with Tween-80); 122 % of control under setting [2]; 165 % of control under setting [3]; 200 % of control (dose: 264.0 mg/kg/injection, schedule: Q04DX003 (ip), vehicle: saline with Tween-80); 112 % of control (dose: 400.0 mg/kg/injection, schedule: Q01DX009 (ip), vehicle: saline with Tween-80); 178 % of control under setting [4]. The T/C was 96 % of control (dose: 400.0 mg/kg/injection, schedule: Q04DX003 (ip), vehicle: saline with Tween-80); 244 % of control (dose: 400.0 mg/kg/injection, schedule: Q04DX003 (ip), vehicle: saline); 95 % of control (dose: 600.0 mg/kg/injection, schedule: Q04DX003 (ip), vehicle: saline with Tween-80).
Consider `COc1ccc2c3c(c4cc(OC)c(OC)cc4c2c1)C[C@H]1CCCCN1C3`, for which the T/C runs as follows: (dose: 0.25 mg/kg/injection, schedule: Q01DX010 (ip), vehicle: saline) 100 % of control; (dose: 0.5 mg/kg/injection, schedule: Q01DX010 (ip), vehicle: saline) 120 % of control; (dose: 1.0 mg/kg/injection, schedule: Q01DX010 (ip), vehicle: saline) 120 % of control; (dose: 2.0 mg/kg/injection, schedule: Q01DX010 (ip), vehicle: saline) 91 % of control.
On to `CCCC1([N+](C)(C)C)CSC1CC` (stereo not drawn), for which the T/C is, setting by setting: (dose: 12.5 mg/kg/injection, schedule: Q04DX002 (ip), vehicle: saline) 105 % of control; (dose: 25.0 mg/kg/injection, schedule: Q04DX002 (ip), vehicle: saline) 103 % of control; (dose: 50.0 mg/kg/injection, schedule: Q04DX002 (ip), vehicle: saline) 96 % of control.
As to `O/N=C(/C(=N/O)c1ccccc1)c1ccccc1.O/N=C(/C(=N/O)c1ccccc1)c1ccccc1.[Cl][Rh][Cl]`, the T/C (dose: 25.0 mg/kg/injection, schedule: Q01DX009 (ip), vehicle: saline) was 119 % of control; the T/C under setting [5] is 117 % of control; the T/C under setting [6] is 94 % of control; the T/C (dose: 200.0 mg/kg/injection, schedule: Q01DX009 (ip), vehicle: saline) is 103 % of control; the T/C under setting [4] was 95 % of control.
Regarding `Oc1ccc2ccccc2c1C1=NNc2n[nH]c(=S)n2N1`, the T/C by setting is: (dose: 12.5 mg/kg/injection, schedule: Q04DX003 (ip), vehicle: Klucel (hydroxypropylcellulose) (HPC)) 104 % of control; (dose: 25.0 mg/kg/injection, schedule: Q04DX003 (ip), vehicle: Klucel (hydroxypropylcellulose) (HPC)) 108 % of control; (dose: 50.0 mg/kg/injection, schedule: Q04DX003 (ip), vehicle: Klucel (hydroxypropylcellulose) (HPC)) 104 % of control.
As to `CCCCC[C@H](O)/C=C/[C@@H]1[C@@H](C/C=C\CCCC(=O)O)[C@@H](O)C[C@H]1O`, the T/C is 110 % of control (dose: 0.25 mg/kg/injection, schedule: Q#A X020 (ip), vehicle: saline); 101 % of control (dose: 0.5 mg/kg/injection, schedule: Q#A X020 (ip), vehicle: saline); 100 % of control (dose: 1.0 mg/kg/injection, schedule: Q#A X020 (ip), vehicle: saline); 94 % of control (dose: 2.5 mg/kg/injection, schedule: Q04DX003 (ip), vehicle: saline with Tween-80); 97 % of control (dose: 5.0 mg/kg/injection, schedule: Q04DX002 (ip), vehicle: saline); 105 % of control (dose: 10.0 mg/kg/injection, schedule: Q04DX003 (ip), vehicle: saline with Tween-80). The T/C (dose: 20.0 mg/kg/injection, schedule: Q04DX002 (ip), vehicle: saline) was 105 % of control; the T/C (dose: 40.0 mg/kg/injection, schedule: Q04DX002 (ip), vehicle: saline) was 105 % of control; the T/C (dose: 80.0 mg/kg/injection, schedule: Q04DX002 (ip), vehicle: saline) is 97 % of control.
Take `CCOC(=O)/C=C\c1c(OC)nc2ccccn2c1=O` (tested in a mixture with another compound): the T/C under setting [7] was 116 % of control; the T/C (dose: 100.0 mg/kg/injection, schedule: Q04DX003 (ip), vehicle: Klucel (hydroxypropylcellulose) (HPC)) is 122 % of control; the T/C (dose: 200.0 mg/kg/injection, schedule: Q01DX009 (ip), vehicle: Klucel (hydroxypropylcellulose) (HPC)) is 121 % of control; the T/C (dose: 200.0 mg/kg/injection, schedule: Q04DX003 (ip), vehicle: Klucel (hydroxypropylcellulose) (HPC)) is 109 % of control; the T/C (dose: 400.0 mg/kg/injection, schedule: Q01DX009 (ip), vehicle: Klucel (hydroxypropylcellulose) (HPC)) was 111 % of control; the T/C (dose: 400.0 mg/kg/injection, schedule: Q04DX003 (ip), vehicle: Klucel (hydroxypropylcellulose) (HPC)) was 113 % of control.
Turning to `CCS(=O)(=O)OCCCl`, the T/C runs as follows: (dose: 25.0 mg/kg/injection, schedule: Q01DX009 (ip), vehicle: Klucel (hydroxypropylcellulose) (HPC)) 100 % of control; (dose: 44.0 mg/kg/injection, schedule: Q01DX009 (ip), vehicle: saline) 104 % of control; (dose: 50.0 mg/kg/injection, schedule: Q01DX009 (ip), vehicle: Klucel (hydroxypropylcellulose) (HPC)) 100 % of control; (dose: 50.0 mg/kg/injection, schedule: Q01DX009 (ip), vehicle: saline with Tween-80) 103 % of control; under setting [5], 161 % of control; (dose: 66.0 mg/kg/injection, schedule: Q01DX009 (ip), vehicle: saline) 108 % of control. In addition, the T/C under setting [7] is 105 % of control; the T/C under setting [1] is 104 % of control; the T/C under setting [6] was 230 % of control and 95 % of control and 108 % of control; the T/C under setting [2] is 100 % of control; the T/C (dose: 150.0 mg/kg/injection, schedule: Q01DX009 (ip), vehicle: saline) is 120 % of control; the T/C (dose: 200.0 mg/kg/injection, schedule: Q01DX009 (ip), vehicle: saline with Tween-80) was 116 % of control. In addition, under setting [3], the T/C was 91 % of control.
